In US4057636A, “Antihypertensive pyridylguanidine compounds” (Leo Pharmaceutical Products Ltd. A/S, priority 1974, dated 1977):

Experiments:
[1] = test system: conscious normotensive dogs; assay: Hypotensive activity in conscious normotensive dogs; type: in vivo, dog (mongrel); conditions: 0.1 mg/kg oral
Experimental: Hypotensive activity in conscious normotensive dogs
Mongrel dogs of both sexes, fasting 16 hours before the experiment were used. […] The compounds were orally administered in gelatine capsules.

[2] = test system: normotensive anaesthetized rats; assay: Hypotensive activity in normotensive anaesthetized rats; type: in vivo, rat (Sprague Dowley); conditions: for Δ mean blood pressure: at time of peak effect
Experimental: Male albino Sprague Dowley strain rats were anaesthetized with pentobarbital and fastened to rat boards in a supine position. The left carotid artery was exposed and cannulated with polyethylene cannula connected through a Statham pressure transducer to a Grass Polygraph Recorder. […] The compound was dissolved in dilute HCl. […] Table 1 summarizes the effects on mean blood pressure at the time of peak effect.

[3] = test system: cats; assay: Hypotensive action in anaesthetized cats (ΔBP, ΔHR); type: in vivo, cat
Experimental: (§1) Hypotensive action and various cardiovascular and autonomic responses in cats.
(§2) Cats of both sexes anaestetized with pentobarbital […]. were used. The left carotid artery was exposed and cannulated with polyethylene cannula connected through a Statham pressure transducer to a Grass Polygraph Recorder. […] The compound was administered dissolved in dilute HCl in a volume of 0.4 ml. […] Both procedures are known to produce pressor effects. […]

[4] = test system: common carotid artery occlusion pressor response; assay: Reduction of pressor response to common carotid artery occlusion (CO) in cats; type: in vivo, cat; conditions: 0.01 mg/kg i.v.; carotid artery occlusion 45 secs
Experimental: as §1, §2

[5] = test system: nictitating membrane; assay: Reduction of contraction of nictitating membrane, pre- and postganglionic stimulation, in cats; type: in vivo, cat; conditions: for Nict. Membr. post % reduction: postganglionic stimulation (3 V, 1 msec, 5 secs); for Nict. Membr. pre % reduction: preganglionic stimulation (3 V, 1 msec, 40 Hz, 5 secs)
Experimental: as §1, §2

[6] = test system: conscious spontaneously hypertensive rats; assay: Antihypertensive activity in conscious spontaneously hypertensive rats; type: in vivo, rat (spontaneously hypertensive Okamoto strain)
Experimental: Male albino rats, spontaneously hypertensive Okamoto strain, fasting 16 hours before the experiments were used. The conscious animals were restrained in a plastic cage and a cuff was secured around the tail. The cuff was connected with an electronic blood pressure recorder. The systolic blood pressure and the heart rate were measured before and 2, 4, 6, and 24 hours after the administration of compounds. The compounds were suspended or dissolved in carboxymethylcellulose 0.5%. […] There are also included, for comparison, the results obtained under the same experimental conditions with some known antihypertensive drugs, and the approximate oral LD50 in mice are stated.

[7] = test system: vasopressor response to norepinephrine; assay: Reduction of vasopressor response to norepinephrine (NE) in cats; type: in vivo, cat; conditions: 0.01 mg/kg i.v.; norepinephrine hydrochloride 1 meg/kg i.v.
Experimental: as §1, §2

[8] = test system: blood pressure; conditions: J. Med. Chem. Vol. 11, p. 811 (1968); cited from earlier work
[9] = 0.01 mg/kg i.v., line with NE/CO
[10] = 0.01 mg/kg i.v., line with nictitating membrane
[11] = 0.05 mg/kg i.v., line with nictitating membrane

CC(C)(C)NC(=NC#N)Nc1cccnc1 [P 1060, N-tert-Butyl-N"-cyano-N'-3-pyridylcuanidine]
BP ([1]; Dog I, 1 hour): 75 mm Hg | HR ([1]; Dog I, 1 hour): 152 beats/minute | UV ([1]; Dog I, 1 hour): 2.3 mL | BP ([1]; Dog I, 2 hours): 80 mm Hg | HR ([1]; Dog I, 2 hours): 180 beats/minute | UV ([1]; Dog I, 2 hours): 7.1 mL | BP ([1]; Dog I, 3 hours): 90 mm Hg | HR ([1]; Dog I, 3 hours): 152 beats/minute | UV ([1]; Dog I, 3 hours): 11 mL | BP ([1]; Dog I, 4 hours): 120 mm Hg | HR ([1]; Dog I, 4 hours): 140 beats/minute | UV ([1]; Dog I, 4 hours): 22 mL | BP ([1]; Dog II, 1 hour): 100 mm Hg | HR ([1]; Dog II, 1 hour): 112 beats/minute | UV ([1]; Dog II, 1 hour): 8 mL | BP ([1]; Dog II, 2 hours): 95 mm Hg | HR ([1]; Dog II, 2 hours): 128 beats/minute | UV ([1]; Dog II, 2 hours): 12.5 mL | BP ([1]; Dog II, 3 hours): 95 mm Hg | HR ([1]; Dog II, 3 hours): 104 beats/minute | UV ([1]; Dog II, 3 hours): 22.5 mL | BP ([1]; Dog II, 4 hours): 105 mm Hg | HR ([1]; Dog II, 4 hours): 100 beats/minute | UV ([1]; Dog II, 4 hours): 16 mL | BP ([1]; Dog III, 1 hour): 65 mm Hg | HR ([1]; Dog III, 1 hour): 172 beats/minute | UV ([1]; Dog III, 1 hour): 22 mL | BP ([1]; Dog III, 2 hours): 115 mm Hg | HR ([1]; Dog III, 2 hours): 104 beats/minute | UV ([1]; Dog III, 2 hours): 20 mL | BP ([1]; Dog III, 3 hours): 110 mm Hg | HR ([1]; Dog III, 3 hours): 92 beats/minute | UV ([1]; Dog III, 3 hours): 12 mL | BP ([1]; Dog III, 4 hours): 125 mm Hg | HR ([1]; Dog III, 4 hours): 88 beats/minute | UV ([1]; Dog III, 4 hours): 14 mL | duration ([2]; 0.002 mg/kg i.v.): 3 min | Δ mean blood pressure ([2]; 0.002 mg/kg i.v.): -70 mm Hg | duration ([2]; 0.005 mg/kg i.v.): 12 min | Δ mean blood pressure ([2]; 0.005 mg/kg i.v.): -70 mm Hg | duration ([2]; 0.010 mg/kg i.v.): > 45 min | Δ mean blood pressure ([2]; 0.010 mg/kg i.v.): -85 mm Hg | ΔBP [3, 9]: 90 mm Hg | ΔHR [3, 9]: 20 beats/min. | ΔBP [3, 10]: 90 mm Hg | ΔHR [3, 10]: 35 beats/min. | ΔBP [3, 11]: 110 mm Hg | ΔHR [3, 11]: 30 beats/min. | CO % reduction [4]: 100% | Nict. Membr. post % reduction ([5]; 0.01 mg/kg i.v.): 12% | Nict. Membr. pre % reduction ([5]; 0.01 mg/kg i.v.): 20% | Nict. Membr. post % reduction ([5]; 0.05 mg/kg i.v.): 21% | Nict. Membr. pre % reduction ([5]; 0.05 mg/kg i.v.): 12% | BP ([6]; 0.01 mg/kg, 2 hours): 141 mm Hg | HR ([6]; 0.01 mg/kg, 2 hours): 419 beats/minute | BP ([6]; 0.01 mg/kg, 4 hours): 145 mm Hg | HR ([6]; 0.01 mg/kg, 4 hours): 423 beats/minute | BP ([6]; 0.01 mg/kg, 6 hours): 146 mm Hg | HR ([6]; 0.01 mg/kg, 6 hours): 428 beats/minute | BP ([6]; 0.01 mg/kg, 24 hours): 176 mm Hg | HR ([6]; 0.01 mg/kg, 24 hours): 402 beats/minute | BP ([6]; 0.05 mg/kg, 2 hours): 126 mm Hg | HR ([6]; 0.05 mg/kg, 2 hours): 422 beats/minute | BP ([6]; 0.05 mg/kg, 4 hours): 132 mm Hg | HR ([6]; 0.05 mg/kg, 4 hours): 420 beats/minute | BP ([6]; 0.05 mg/kg, 6 hours): 127 mm Hg | HR ([6]; 0.05 mg/kg, 6 hours): 410 beats/minute | BP ([6]; 0.05 mg/kg, 24 hours): 170 mm Hg | HR ([6]; 0.05 mg/kg, 24 hours): 386 beats/minute | BP ([6]; 0.1 mg/kg, 2 hours): 118 mm Hg | HR ([6]; 0.1 mg/kg, 2 hours): 420 beats/minute | BP ([6]; 0.1 mg/kg, 4 hours): < 100 mm Hg | HR ([6]; 0.1 mg/kg, 4 hours): 426 beats/minute | BP ([6]; 0.1 mg/kg, 6 hours): 114 mm Hg | HR ([6]; 0.1 mg/kg, 6 hours): 422 beats/minute | BP ([6]; 0.1 mg/kg, 24 hours): 170 mm Hg | HR ([6]; 0.1 mg/kg, 24 hours): 408 beats/minute | BP ([6]; 0.5 mg/kg, 2 hours): < 100 mm Hg | BP ([6]; 0.5 mg/kg, 4 hours): < 100 mm Hg | BP ([6]; 0.5 mg/kg, 6 hours): < 100 mm Hg | BP ([6]; 0.5 mg/kg, 24 hours): 153 mm Hg | HR ([6]; 0.5 mg/kg, 24 hours): 413 beats/minute | BP ([6]; 1.0 mg/kg, 2 hours): < 100 mm Hg | BP ([6]; 1.0 mg/kg, 4 hours): < 100 mm Hg | BP ([6]; 1.0 mg/kg, 6 hours): < 100 mm Hg | BP ([6]; 1.0 mg/kg, 24 hours): 126 mm Hg | HR ([6]; 1.0 mg/kg, 24 hours): 405 beats/minute | NE % reduction [7]: 50%

CCC(C)(C)NC(=N)NC#N [Guancydine, N-cyano-N'-tert-pentylguanidine]
hypotensive effect (literature) [8]: the most potent of the compounds of the above-mentioned literature
